According to ChEMBL document CHEMBL4630906, “Data for DCP probe BAY-3153” (2021):
Each block holds one compound with its values, some of them ahead of it. The source made the active and inactive calls. The calls are words filed in the database; no cut-off is given here.

Legend:
[1] = target: Histamine H3 receptor (Homo sapiens) (UniProt Q9Y5N1); conditions: Compound concentration 10.0 uM
[2] = target: 5-hydroxytryptamine receptor 1B (Homo sapiens) (UniProt P28222); conditions: Compound concentration 10.0 uM
Sequence of 5-hydroxytryptamine receptor 1B (Homo sapiens) (P28222 whole entry): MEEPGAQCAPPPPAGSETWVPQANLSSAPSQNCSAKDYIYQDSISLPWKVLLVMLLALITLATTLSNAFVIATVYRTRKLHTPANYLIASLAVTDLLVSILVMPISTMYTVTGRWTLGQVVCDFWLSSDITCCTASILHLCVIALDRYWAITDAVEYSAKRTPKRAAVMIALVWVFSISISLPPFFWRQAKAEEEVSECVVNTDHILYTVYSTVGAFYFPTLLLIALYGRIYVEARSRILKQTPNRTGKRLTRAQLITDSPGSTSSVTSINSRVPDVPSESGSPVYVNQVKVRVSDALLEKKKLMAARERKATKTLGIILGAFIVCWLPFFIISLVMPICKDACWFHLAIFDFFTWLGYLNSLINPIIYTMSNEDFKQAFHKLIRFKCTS

[3] = target: 5-hydroxytryptamine receptor 1D (Homo sapiens) (UniProt P28221); conditions: Compound concentration 10.0 uM
[4] = target: Mu-type opioid receptor (Homo sapiens) (UniProt P35372); conditions: Compound concentration 10.0 uM
[5] = target: 5-hydroxytryptamine receptor 2B (Homo sapiens) (UniProt P41595); conditions: Compound concentration 10.0 uM
Sequence of 5-hydroxytryptamine receptor 2B (Homo sapiens) (P41595 whole entry): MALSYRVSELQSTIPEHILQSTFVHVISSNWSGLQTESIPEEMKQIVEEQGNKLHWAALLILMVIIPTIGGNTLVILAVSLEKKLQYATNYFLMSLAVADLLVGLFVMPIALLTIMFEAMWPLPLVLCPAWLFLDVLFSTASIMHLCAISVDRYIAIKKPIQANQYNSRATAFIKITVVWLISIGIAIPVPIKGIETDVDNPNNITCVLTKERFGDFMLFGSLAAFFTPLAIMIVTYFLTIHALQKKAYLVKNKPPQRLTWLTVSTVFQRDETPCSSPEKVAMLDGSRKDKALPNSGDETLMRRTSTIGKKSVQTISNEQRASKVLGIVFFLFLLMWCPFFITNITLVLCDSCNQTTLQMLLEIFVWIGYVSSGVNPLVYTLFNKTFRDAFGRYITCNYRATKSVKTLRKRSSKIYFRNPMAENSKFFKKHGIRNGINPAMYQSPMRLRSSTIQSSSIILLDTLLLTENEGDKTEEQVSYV

[6] = target: 5-hydroxytryptamine receptor 6 (Homo sapiens) (UniProt P50406); conditions: Compound concentration 10.0 uM
Sequence of 5-hydroxytryptamine receptor 6 (Homo sapiens) (P50406 whole entry): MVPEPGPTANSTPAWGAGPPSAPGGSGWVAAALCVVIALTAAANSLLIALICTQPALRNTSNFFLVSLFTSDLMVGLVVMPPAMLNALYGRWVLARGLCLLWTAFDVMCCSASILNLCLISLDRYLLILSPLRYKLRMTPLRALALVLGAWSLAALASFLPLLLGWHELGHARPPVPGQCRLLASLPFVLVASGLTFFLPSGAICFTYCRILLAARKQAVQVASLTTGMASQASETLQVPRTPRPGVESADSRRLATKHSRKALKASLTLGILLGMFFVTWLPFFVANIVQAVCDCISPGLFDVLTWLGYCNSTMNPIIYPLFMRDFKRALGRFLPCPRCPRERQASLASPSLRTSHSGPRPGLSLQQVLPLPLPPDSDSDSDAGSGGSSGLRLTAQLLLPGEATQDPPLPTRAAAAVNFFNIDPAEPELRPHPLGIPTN

[7] = target: D(1B) dopamine receptor (Homo sapiens) (UniProt P21918); conditions: Compound concentration 10.0 uM
Rattus norvegicus = organism: Rattus norvegicus; conditions: Compound concentration 10.0 uM
[8] = target: T1, Sigma non-opioid intracellular receptor 1 (Homo sapiens, UniProt Q99720); conditions: Compound concentration 10.0 uM
T1 sequence (Q99720 whole entry): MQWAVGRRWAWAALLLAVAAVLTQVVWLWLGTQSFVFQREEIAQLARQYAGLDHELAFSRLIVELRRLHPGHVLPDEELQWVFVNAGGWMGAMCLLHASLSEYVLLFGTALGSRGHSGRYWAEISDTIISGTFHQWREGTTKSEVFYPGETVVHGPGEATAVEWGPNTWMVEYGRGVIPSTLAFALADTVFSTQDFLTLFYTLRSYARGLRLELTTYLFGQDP

[9] = target: T2, Sigma intracellular receptor 2 (Homo sapiens, UniProt Q5BJF2); conditions: Compound concentration 10.0 uM
T2 sequence (Q5BJF2 whole entry): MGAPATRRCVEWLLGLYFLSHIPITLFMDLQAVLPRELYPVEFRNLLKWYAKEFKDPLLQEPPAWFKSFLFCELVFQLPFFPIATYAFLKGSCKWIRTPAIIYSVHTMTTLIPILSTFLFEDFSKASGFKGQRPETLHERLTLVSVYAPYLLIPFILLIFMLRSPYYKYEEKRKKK

[10] = target: Alpha-2A adrenergic receptor (Homo sapiens) (UniProt P08913); conditions: Compound concentration 10.0 uM
[11] = target: T3, GABA-A receptor; anion channel (Rattus norvegicus) (UniProt O09028+P15431+P18506+P18508+P19969+P20236+P23574+P23576+P28471+P28473+P30191+P62813+P63079+P63138+Q91ZM7+Q9ES14); conditions: Compound concentration 10.0 uM
[12] = target: Muscarinic acetylcholine receptor M1 (Homo sapiens) (UniProt P11229); conditions: Compound concentration 10.0 uM
[13] = target: Alpha-2C adrenergic receptor (Homo sapiens) (UniProt P18825); conditions: Compound concentration 10.0 uM
[14] = target: Alpha-1B adrenergic receptor (Homo sapiens) (UniProt P35368); conditions: Compound concentration 10.0 uM
[15] = target: C-C chemokine receptor type 1 (Homo sapiens, UniProt P32246); assay: CCR1 cellular Ca2+-flux assay; format: functional
[16] = target: Sodium-dependent noradrenaline transporter (Homo sapiens) (UniProt P23975); conditions: Compound concentration 10.0 uM
[17] = target: Muscarinic acetylcholine receptor M5 (Homo sapiens) (UniProt P08912); conditions: Compound concentration 10.0 uM
Sequence of Muscarinic acetylcholine receptor M5 (Homo sapiens) (P08912 whole entry): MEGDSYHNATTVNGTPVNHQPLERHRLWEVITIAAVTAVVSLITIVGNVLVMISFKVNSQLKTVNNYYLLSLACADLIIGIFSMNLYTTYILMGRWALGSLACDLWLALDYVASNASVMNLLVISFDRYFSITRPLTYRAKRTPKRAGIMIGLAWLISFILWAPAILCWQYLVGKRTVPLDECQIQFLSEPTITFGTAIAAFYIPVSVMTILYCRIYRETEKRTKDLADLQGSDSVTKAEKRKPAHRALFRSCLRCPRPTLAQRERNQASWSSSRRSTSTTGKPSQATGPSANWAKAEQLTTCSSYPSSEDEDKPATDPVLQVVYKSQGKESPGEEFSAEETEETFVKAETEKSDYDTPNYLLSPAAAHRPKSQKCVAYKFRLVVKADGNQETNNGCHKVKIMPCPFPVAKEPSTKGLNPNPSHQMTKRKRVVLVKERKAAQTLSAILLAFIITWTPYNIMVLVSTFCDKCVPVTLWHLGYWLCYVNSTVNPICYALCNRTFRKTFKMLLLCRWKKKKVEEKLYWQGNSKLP

[18] = target: D(3) dopamine receptor (Homo sapiens) (UniProt P35462); conditions: Compound concentration 10.0 uM
[19] = target: Histamine H4 receptor (Homo sapiens) (UniProt Q9H3N8); conditions: Compound concentration 10.0 uM
[20] = target: Histamine H1 receptor (Homo sapiens) (UniProt P35367); conditions: Compound concentration 10.0 uM
[21] = target: 5-hydroxytryptamine receptor 2C (Homo sapiens) (UniProt P28335); conditions: Compound concentration 10.0 uM
[22] = target: Muscarinic acetylcholine receptor M3 (Homo sapiens) (UniProt P20309); conditions: Compound concentration 10.0 uM
Sequence of Muscarinic acetylcholine receptor M3 (Homo sapiens) (P20309 whole entry, looked up): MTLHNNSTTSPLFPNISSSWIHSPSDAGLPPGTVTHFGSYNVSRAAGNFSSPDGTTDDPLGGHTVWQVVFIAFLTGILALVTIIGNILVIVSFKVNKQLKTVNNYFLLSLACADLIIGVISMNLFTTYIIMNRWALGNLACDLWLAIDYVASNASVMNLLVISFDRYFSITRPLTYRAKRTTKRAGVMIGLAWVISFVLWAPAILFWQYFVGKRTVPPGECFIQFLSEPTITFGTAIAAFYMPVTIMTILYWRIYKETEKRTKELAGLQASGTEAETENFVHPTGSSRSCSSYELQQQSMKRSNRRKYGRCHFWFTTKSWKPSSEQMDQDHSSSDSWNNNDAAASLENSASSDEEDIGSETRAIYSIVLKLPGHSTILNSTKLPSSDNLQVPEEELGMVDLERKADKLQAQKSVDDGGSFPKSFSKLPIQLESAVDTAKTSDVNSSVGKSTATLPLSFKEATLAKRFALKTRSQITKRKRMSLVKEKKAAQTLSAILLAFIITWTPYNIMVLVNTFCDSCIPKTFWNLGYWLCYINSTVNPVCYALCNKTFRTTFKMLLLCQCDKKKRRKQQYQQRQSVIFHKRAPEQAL

[23] = target: Alpha-2B adrenergic receptor (Homo sapiens, UniProt P18089); assay: GPCRScan assay: inhibition of Alpha2B; design: radioligand conc. used [nm] 1.5 – 2.0, parental cells HEKT
[24] = target: T2, Sigma intracellular receptor 2; assay: GPCRScan assay: inhibition of Sigma 2; design: radioligand conc. used [nm] 5.0, parental cells HEKT
[25] = target: Beta-3 adrenergic receptor (Homo sapiens) (UniProt P13945); conditions: Compound concentration 10.0 uM
D(4) dopamine receptor = D(4) dopamine receptor (Homo sapiens, UniProt P21917); assay: GPCRScan assay: inhibition of D4; design: radioligand conc. used [nm] 0.6 – 1.7, parental cells Stable HEK
[26] = target: Beta-1 adrenergic receptor (Homo sapiens) (UniProt P08588); conditions: Compound concentration 10.0 uM
[27] = target: Histamine H2 receptor (Homo sapiens) (UniProt P25021); conditions: Compound concentration 10.0 uM
[28] = target: Beta-2 adrenergic receptor (Homo sapiens) (UniProt P07550); conditions: Compound concentration 10.0 uM
[29] = target: T4, Sodium-dependent serotonin transporter (Homo sapiens, UniProt P31645); assay: GPCRScan assay: inhibition of SERT; design: radioligand conc. used [nm] 1.5 – 2.0, parental cells stable HEK
[30] = target: Alpha-1D adrenergic receptor (Homo sapiens) (UniProt P25100); conditions: Compound concentration 10.0 uM
[31] = target: T4, Sodium-dependent serotonin transporter; conditions: Compound concentration 10.0 uM
Target sequence in this assay (P31645 whole entry, looked up): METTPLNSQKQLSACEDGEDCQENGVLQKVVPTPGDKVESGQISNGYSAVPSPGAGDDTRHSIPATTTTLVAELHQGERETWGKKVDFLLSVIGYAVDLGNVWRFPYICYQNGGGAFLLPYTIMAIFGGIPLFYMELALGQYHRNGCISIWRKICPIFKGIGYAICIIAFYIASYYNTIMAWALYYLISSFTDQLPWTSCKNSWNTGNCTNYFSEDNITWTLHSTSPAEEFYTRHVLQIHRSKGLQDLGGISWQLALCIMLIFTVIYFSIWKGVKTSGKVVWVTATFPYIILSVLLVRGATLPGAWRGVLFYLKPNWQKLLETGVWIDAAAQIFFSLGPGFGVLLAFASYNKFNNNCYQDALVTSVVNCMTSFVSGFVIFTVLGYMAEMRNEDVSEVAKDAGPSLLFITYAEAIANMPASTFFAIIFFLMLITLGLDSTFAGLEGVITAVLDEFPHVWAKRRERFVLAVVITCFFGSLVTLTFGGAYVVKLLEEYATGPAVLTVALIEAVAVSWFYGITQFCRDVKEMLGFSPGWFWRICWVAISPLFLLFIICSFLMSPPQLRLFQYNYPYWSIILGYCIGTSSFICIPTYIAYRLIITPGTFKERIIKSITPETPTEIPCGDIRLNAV

[32] = target: 5-hydroxytryptamine receptor 5A (Homo sapiens) (UniProt P47898); conditions: Compound concentration 10.0 uM
[33] = target: T3, GABA-A receptor; anion channel (Rattus norvegicus); conditions: Compound concentration 10.0 uM; remark: listed apart in the source
[34] = target: T1, Sigma non-opioid intracellular receptor 1; assay: GPCRScan assay: inhibition of Sigma 1; design: radioligand conc. used [nm] 4.0 – 5.0, parental cells HEKT
[35] = target: 5-hydroxytryptamine receptor 2A (Homo sapiens) (UniProt P28223); conditions: Compound concentration 10.0 uM
Sequence of 5-hydroxytryptamine receptor 2A (Homo sapiens) (P28223 whole entry): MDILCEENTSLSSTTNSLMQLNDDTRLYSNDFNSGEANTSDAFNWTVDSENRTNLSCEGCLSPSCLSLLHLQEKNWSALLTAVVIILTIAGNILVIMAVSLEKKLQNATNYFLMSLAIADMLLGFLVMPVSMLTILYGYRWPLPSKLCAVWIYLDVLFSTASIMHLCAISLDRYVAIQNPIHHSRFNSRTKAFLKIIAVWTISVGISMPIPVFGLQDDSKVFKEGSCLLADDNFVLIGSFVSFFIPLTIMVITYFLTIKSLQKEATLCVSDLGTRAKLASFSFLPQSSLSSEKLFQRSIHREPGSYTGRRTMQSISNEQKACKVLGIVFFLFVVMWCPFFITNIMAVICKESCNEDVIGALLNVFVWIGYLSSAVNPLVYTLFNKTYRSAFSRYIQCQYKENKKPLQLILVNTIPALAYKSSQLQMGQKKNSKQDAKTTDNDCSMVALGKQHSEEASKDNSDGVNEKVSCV

[36] = target: Muscarinic acetylcholine receptor M2 (Homo sapiens) (UniProt P08172); conditions: Compound concentration 10.0 uM
[37] = target: T5, Kappa-type opioid receptor (Homo sapiens, UniProt P41145); conditions: Compound concentration 10.0 uM
T5 sequence (P41145 whole entry): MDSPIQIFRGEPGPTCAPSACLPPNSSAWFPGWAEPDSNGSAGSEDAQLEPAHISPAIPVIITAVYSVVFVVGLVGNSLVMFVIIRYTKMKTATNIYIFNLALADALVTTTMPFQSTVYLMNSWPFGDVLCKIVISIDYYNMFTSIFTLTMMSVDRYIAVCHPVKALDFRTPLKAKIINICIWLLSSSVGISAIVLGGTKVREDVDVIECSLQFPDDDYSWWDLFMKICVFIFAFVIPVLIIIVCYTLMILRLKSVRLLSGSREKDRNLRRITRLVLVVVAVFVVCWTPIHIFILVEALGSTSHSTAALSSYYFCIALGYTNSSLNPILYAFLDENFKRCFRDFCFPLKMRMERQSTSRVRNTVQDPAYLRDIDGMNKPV

[38] = target: Alpha-1A adrenergic receptor (Homo sapiens) (UniProt P35348); conditions: Compound concentration 10.0 uM
[39] = target: D(4) dopamine receptor (Homo sapiens) (UniProt P21917); conditions: Compound concentration 10.0 uM
[40] = target: 5-hydroxytryptamine receptor 3A (Homo sapiens) (UniProt P46098); conditions: Compound concentration 10.0 uM
[41] = target: Muscarinic acetylcholine receptor M4 (Homo sapiens) (UniProt P08173); conditions: Compound concentration 10.0 uM
Sequence of Muscarinic acetylcholine receptor M4 (Homo sapiens) (P08173 whole entry): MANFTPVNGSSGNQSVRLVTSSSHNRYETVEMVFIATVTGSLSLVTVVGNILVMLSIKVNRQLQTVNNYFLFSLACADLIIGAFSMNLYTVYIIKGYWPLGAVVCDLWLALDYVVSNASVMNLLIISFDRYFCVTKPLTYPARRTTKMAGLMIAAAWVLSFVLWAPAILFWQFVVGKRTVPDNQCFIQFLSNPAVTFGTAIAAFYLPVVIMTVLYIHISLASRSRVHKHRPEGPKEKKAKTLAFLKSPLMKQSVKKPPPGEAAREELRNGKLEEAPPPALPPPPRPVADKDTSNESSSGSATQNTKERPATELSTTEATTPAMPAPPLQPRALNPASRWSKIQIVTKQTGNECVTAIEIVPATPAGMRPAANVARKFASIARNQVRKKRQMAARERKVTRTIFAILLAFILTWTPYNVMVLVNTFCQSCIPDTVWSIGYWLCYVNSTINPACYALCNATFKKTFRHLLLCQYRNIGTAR

[42] = target: Sodium-dependent dopamine transporter (Homo sapiens) (UniProt Q01959); conditions: Compound concentration 10.0 uM
[43] = target: T5, Kappa-type opioid receptor; assay: GPCRScan assay: inhibition of KOR; design: radioligand conc. used [nm] 0.6 – 1.2, parental cells stable HEK
[44] = target: Delta-type opioid receptor (Homo sapiens) (UniProt P41143); conditions: Compound concentration 10.0 uM
[45] = target: 5-hydroxytryptamine receptor 1A (Homo sapiens) (UniProt P08908); conditions: Compound concentration 10.0 uM
[46] = GPCRScan assay: inhibition of GABA/PBR; design: species or system Rattus norvegicus; radioligand conc. used [nm] 0.3 – 2.0, parental cells brain tissue
[47] = target: D(1A) dopamine receptor (Homo sapiens) (UniProt P21728); conditions: Compound concentration 10.0 uM
[48] = target: D(2) dopamine receptor (Homo sapiens) (UniProt P14416); conditions: Compound concentration 10.0 uM

- inhibition [1]: 9.39%
- inhibition [2]: -6.45%
- inhibition [3]: -7.5%
- inhibition [4]: 4.45%
- inhibition [5]: 14.8%
- inhibition [6]: 5.38%
- inhibition [7]: 6.84%
- inhibition (Rattus norvegicus): -8.33%
- inhibition [8]: 69.5%
- inhibition [9]: 76.5%
- inhibition [10]: 11.3%
- inhibition [11]: 20%
- inhibition [12]: -3.85%
- inhibition [13]: 14.4%
- inhibition [14]: 0.94%
- IC50 [15]: 1.2 µM (not active)
- inhibition [16]: -4.52%
- inhibition [17]: -1.65%
- inhibition [18]: 2.75%
- inhibition [19]: -3.31%
- inhibition [20]: 14.3%
- inhibition [21]: -2.02%
- inhibition [22]: 24.1%
- Ki [23]: 10 µM
- Ki [24]: 2.17 µM
- inhibition [25]: -9.84%
- Ki (D(4) dopamine receptor): 10 µM
- inhibition [26]: 6.12%
- inhibition [27]: 8.13%
- inhibition [28]: -7.55%
- Ki [29]: 1.46 µM
- inhibition [30]: -7.34%
- inhibition [31]: 70.3%
- inhibition [32]: -1.82%
- inhibition [33]: 0.65%
- Ki [34]: 8.25 µM
- inhibition [35]: 7.31%
- inhibition [36]: 1.89%
- inhibition [37]: 18.7%
- inhibition [38]: 7.02%
- inhibition [39]: 51.5%
- inhibition [40]: -7.03%
- inhibition [41]: -6.12%
Compound: O=C([C@H]1C[C@H](O)CN1c1ccc(Cl)cc1)N1CC2COCC(C1)N2Cc1ccc(Cl)cc1 [BAY-173]

- inhibition [1]: 17.3%
- inhibition [2]: -2.86%
- inhibition [3]: -2.08%
- inhibition [4]: 5.82%
- inhibition [5]: 10.5%
- inhibition [6]: -8.16%
- inhibition [42]: 3.92%
- Ki [43]: 3.01 µM
- inhibition [7]: 2.54%
- inhibition (Rattus norvegicus): 54.2%
- inhibition [8]: 85%
- inhibition [9]: 83.6%
- inhibition [44]: 10.3%
- inhibition [11]: 18.6%
- inhibition [12]: -5.67%
- inhibition [13]: 2.17%
- IC50 [15]: 0.003 µM (active)
- inhibition [16]: 1.24%
- inhibition [17]: -4.29%
- inhibition [18]: 1.58%
- inhibition [20]: 11.2%
- inhibition [21]: 4.08%
- inhibition [22]: 8.61%
- Ki [24]: 1.48 µM
- inhibition [25]: -5.38%
- inhibition [27]: 27.7%
- inhibition [28]: -4.63%
- inhibition [30]: 7.09%
- inhibition [31]: 33.4%
- inhibition [32]: 1.7%
- inhibition [45]: -9.03%
- inhibition [33]: -6.17%
- Ki [34]: 1.83 µM
- inhibition [35]: 6.74%
- inhibition [36]: 8.64%
- Ki [46]: 1.81 µM
- pKi [46]: 5.74
- inhibition [37]: 53.6%
- inhibition [38]: 17%
- inhibition [39]: 15.5%
- inhibition [47]: 40.3%
- inhibition [48]: 7.26%
- inhibition [40]: -1.97%
- inhibition [41]: -3.29%
Compound: CCOc1cc(N2C3COCC2CN(C(=O)[C@H]2C[C@H](O)CN2c2ccc(Cl)cc2)C3)ccc1Cl [BAY-3153]
